Assay results: patent US8455532B2, “Pyrazolyl acrylonitrile compounds and uses thereof” (Shenyang Research Institute of Chemical Industry Co., Ltd., priority 2009, dated 2013)
Read-outs that look alike come from different tables or passages of the source. Each block holds one compound with its values, some of them ahead of it.

How the values were obtained:
[1] = system: adult spider mites (Tetranychus cinnabarinus); experiment: Test against adult spider mite, spray on bean leaves, mortality after 72 h; type: in vivo; conditions: for mortality at 1.25 ppm / mortality at 2.5 ppm / mortality at 5 ppm / mortality at 10 ppm / mortality at 0.63 ppm: Tetranychus cinnabarinus, read-out: Acaricidal activity against adult spider mites (mortality, %)
Description: (§1) According to the solubility of test compounds, the compounds are dissolved in acetone or dimethyl sulfoxide, and then diluted with 0.1% aqueous solution of Tween 80 to form 50 ml test liquid, the content of acetone or dimethyl sulfoxide in the total solution is not more than 10%.
The adult spider mites (Tetranychus cinnabarinus) were put into two true leaves of bean plants. After the number of mites were investigated, the solution of certain concentrations of test compounds was sprayed using a sprinkler and repeated three times. Then the leaves were maintained in standard observation room. After 72 h the survival mites in each leaf were observed, and mortality of the mites was determined.
According to above method, the representative compounds of this invention, compound KC, (compound 30 in JP2003201280A, E configuration), KC2 (compound 31 in JP2003201280A, Z configuration) and KC3 (compound 24 in CN101367784A) were chosen to parallel activity test against adult spider mites.

[2] = system: deutonymph of spider mite (Tetranychus cinnabarinus); experiment: Test against deutonymph of spider mite, spray, mortality after 72 h; type: in vivo; conditions: read-out: Acaricidal activity against deutonymph of spider mites (mortality, %)
Description: as §1
Ten healthy female adult spider mites (Tetranychus cinnabarinus) were put into two true leaves of bean plants. The adult spider mites were removed after 24 h and the eggs were continued incubating. After ten days, the number of deutonymph were investigated and recorded. The solution of certain concentrations of test compounds was sprayed using a sprinkler and repeated three times. Then the deutonymph of spider mites were maintained in standard observation room. After 72 h, the survival mites in each leaf were observed, and mortality of the mites was determined.
According to above method, high acaricidal compound 5.1, 90.1 in present invention, and known high acaricidal compound KC1 were chosen to parallel activity test against deutonymph of spider mite.

[3] = system: egg of spider mite (Tetranychus cinnabarinus); experiment: Test against egg of spider mite, spray, incubation inhibition; type: in vivo; conditions: read-out: Acaricidal activity against eggs of spider mites (incubation inhibition rate, %)
Description: as §1
Two true leaves of bean plants were taken and one true leaf was removed. Then ten healthy female adult spider mites were put into the true leaf. The adult spider mites were removed after 24 h and the eggs were investigated. The solution of certain concentrations of test compounds was sprayed using a sprinkler and repeated three times. The untreated eggs were all incubated after 5 days. The unincubation of treated eggs in leaf were observed, and incubation inhibition rate of the eggs were determined.
According to the above method, high acaricidal compound 5.1, 90.1 in present invention, and known high acaricidal compound KC1 were chosen to parallel activity test against eggs of spider mites.

spider mites = experiment: Test of systemic activity against spider mite through root absorbtion; type: in vivo; conditions: root dip 24 h, 72 h after infestation
Description: The test compounds are dissolved in acetone, and then diluted with 0.1% aqueous solution of Tween 80 to form test solution in different concentration and every treatment was repeated three times. Water is blank control. The 10 mL test compound solution was added into the tube. Two true leaves bean plants were taken and the soil in the root was removed. The bean plant was dipped into the test solution in different concentration. After absorbing 24 h, 30 to 50 spider mites were put onto the true leaves. Then the bean plants were maintained in observation room at 25±1° C. After 72 h, the death and survival mites in each leaf was observed, the mortality of the mites and systemic activity was determined.

[4] = in JP2003206280A; cited from earlier work
spider mite = conditions: 400 ppm, in CN101367784A; cited from earlier work
[5] = system: peach aphid (Myzus peisicae Sulzer); experiment: Test against peach aphid, spray on cabbage leaves, mortality after 72 h; type: in vivo
Description: as §1
The cabbage leaves with peach aphids were taken and after the number of peach aphids were investigated, the solution of certain concentrations of test compounds was sprayed using a sprinkler and repeated three times. Then the leaves were maintained in standard observation room. After 72 h, the survival peach aphids were observed, and mortality of the peach aphids was determined.

Structure (SMILES): CCn1nc(C)c(C)c1C(OC(=O)C(C)(C)C)=C(C#N)c1ccc(C(C)(C)C)cc1 [Compound 42.2]
Acaricidal activity against adult spider mites (mortality, %) ([1]; 0.63 ppm, spray): 51%
Acaricidal activity against adult spider mites (mortality, %) ([1]; 1.25 ppm, spray): 70%
Acaricidal activity against adult spider mites (mortality, %) ([1]; 2.5 ppm, spray): 100%
Acaricidal activity against adult spider mites (mortality, %) ([1]; 5 ppm, spray): 100%
Acaricidal activity against adult spider mites (mortality, %) ([1]; 10 ppm, spray): 100%

Structure (SMILES): CCOC(=O)OC(=C(C#N)c1ccc(C(C)(C)C)cc1)c1c(Cl)c(C)nn1CC [Compound 101.1]
mortality at 1.25 ppm ([1]; 1.25 ppm, spray): 50%
mortality at 2.5 ppm ([1]; 2.5 ppm, spray): 91%
mortality at 5 ppm ([1]; 5 ppm, spray): 100%
mortality at 10 ppm ([1]; 10 ppm, spray): 100%

melting point: 96 to 97 °C
Structure (SMILES): CCOC(=O)OC(=C(C#N)c1ccc(C(C)(C)C)cc1)c1cc(C)nn1CC [Compound 17.1]

Structure (SMILES): CCn1nc(C)c(Cl)c1C(OC(=O)C(C)(C)C)=C(C#N)c1ccc(C(C)(C)C)cc1 [Compound 90.2]
Acaricidal activity against adult spider mites (mortality, %) ([1]; 0.63 ppm, spray): 28%
Acaricidal activity against adult spider mites (mortality, %) ([1]; 1.25 ppm, spray): 100%
Acaricidal activity against adult spider mites (mortality, %) ([1]; 2.5 ppm, spray): 100%
Acaricidal activity against adult spider mites (mortality, %) ([1]; 5 ppm, spray): 100%
Acaricidal activity against adult spider mites (mortality, %) ([1]; 10 ppm, spray): 100%

Structure (SMILES): CCn1nc(C)c(C)c1C(OC(=O)C1CC1)=C(C#N)c1ccc(C(C)(C)C)cc1 [Compound 44.2]
mortality at 0.63 ppm ([1]; 0.63 ppm, spray): 65%
mortality at 1.25 ppm ([1]; 1.25 ppm, spray): 97%
mortality at 2.5 ppm ([1]; 2.5 ppm, spray): 100%
mortality at 5 ppm ([1]; 5 ppm, spray): 100%
mortality at 10 ppm ([1]; 10 ppm, spray): 100%

Structure (SMILES): CCn1nc(C)cc1C(OC(=O)C(C)(C)C)=C(C#N)c1ccc(C(C)(C)C)cc1 [Compound 5.1]
Acaricidal activity against adult spider mites (mortality, %) ([1]; 1.25 ppm, spray): 98%
mortality at 0.63 ppm ([1]; 0.63 ppm, spray): 42%
mortality at 2.5 ppm ([1]; 2.5 ppm, spray): 100%
mortality at 5 ppm ([1]; 5 ppm, spray): 100%
mortality at 10 ppm ([1]; 10 ppm, spray): 100%
mortality at 0.16 ppm ([2]; 0.16 ppm, spray): 94%
mortality at 0.63 ppm ([2]; 0.63 ppm, spray): 100%
mortality at 2.5 ppm ([2]; 2.5 ppm, spray): 100%
inhibition at 2.5 ppm [3]: 66%
inhibition at 5 ppm [3]: 100%
inhibition at 10 ppm [3]: 100%

melting point: 86 to 88 °C
Structure (SMILES): CCn1nc(C)c(C)c1C(O)=C(C#N)c1ccc(C(C)(C)C)cc1 [Compound 39, 3-(1-ethyl-3,4-dimethylpyrazol-5-yl)-2-(4-tertbutylphenyl)-3-hydroxyl-acrylonitrile]

Structure (SMILES): CCn1nc(C)c(C)c1C(OC(=O)C(C)(C)C)=C(C#N)c1ccc(C(C)(C)C)cc1 [Compound 42.1]
Acaricidal activity against adult spider mites (mortality, %) ([1]; 0.63 ppm, spray): 20%
Acaricidal activity against adult spider mites (mortality, %) ([1]; 1.25 ppm, spray): 93%
mortality at 2.5 ppm ([1]; 2.5 ppm, spray): 100%
mortality at 5 ppm ([1]; 5 ppm, spray): 100%
mortality at 10 ppm ([1]; 10 ppm, spray): 100%

Structure (SMILES): CCOC(=O)OC(=C(C#N)c1ccc(C(C)(C)C)cc1)c1c(C)c(C)nn1CC [Compound 54.1]
mortality at 1.25 ppm ([1]; 1.25 ppm, spray): 100%
mortality at 2.5 ppm ([1]; 2.5 ppm, spray): 100%
mortality at 5 ppm ([1]; 5 ppm, spray): 100%
mortality at 10 ppm ([1]; 10 ppm, spray): 100%

Structure (SMILES): Cc1nn(C)c(/C(OC(=O)C(C)(C)C)=C(\C#N)c2ccc(C(C)(C)C)cc2)c1C [KC1, cyenopyrafen, reference compound]
mortality at 1.25 ppm [1]: 30%
mortality at 2.5 ppm [1]: 85%
mortality at 5 ppm [1]: 100%
mortality at 10 ppm [1]: 100%
Systemic activity against spider mites through root absorbtion (mortality, %) (spider mites; 50 ppm): 0%
Systemic activity against spider mites through root absorbtion (mortality, %) (spider mites; 100 ppm): 0%
Systemic activity against spider mites through root absorbtion (mortality, %) (spider mites; 200 ppm): 0%
mortality at 0.16 ppm [2]: 20%
mortality at 0.63 ppm [2]: 70%
mortality at 2.5 ppm [2]: 82%
inhibition at 2.5 ppm [3]: 7%
inhibition at 5 ppm [3]: 84%
inhibition at 10 ppm [3]: 100%
insecticidal and acaricidal activity [4]: good insecticidal and acaricidal activity

Structure (SMILES): Cc1nn(C)c(/C(OC(=O)C(C)(C)C)=C(/C#N)c2ccc(C(C)(C)C)cc2)c1C [KC2, reference compound]
mortality at 1.25 ppm [1]: 0%
mortality at 2.5 ppm [1]: 55%
mortality at 5 ppm [1]: 100%
mortality at 10 ppm [1]: 100%

Structure (SMILES): CCc1nn(C)c(/C(OC(C)=O)=C(\C#N)c2ccc(C(C)(C)C)cc2)c1Cl [KC3, reference compound]
mortality at 10 ppm [1]: 5%
mortality against spider mite (spider mite): more than 80%

Structure (SMILES): CCn1nc(C)c(Cl)c1C(OC(=O)C(C)(C)C)=C(C#N)c1ccc(C(C)(C)C)cc1 [Compound 90.1]
Acaricidal activity against adult spider mites (mortality, %) ([1]; 0.63 ppm, spray): 55%
mortality at 1.25 ppm ([1]; 1.25 ppm, spray): 100%
mortality at 2.5 ppm ([1]; 2.5 ppm, spray): 100%
mortality at 5 ppm ([1]; 5 ppm, spray): 100%
mortality at 10 ppm ([1]; 10 ppm, spray): 100%
Systemic activity against spider mites through root absorbtion (mortality, %) (spider mites; 50 ppm): 66%
Systemic activity against spider mites through root absorbtion (mortality, %) (spider mites; 100 ppm): 98%
Systemic activity against spider mites through root absorbtion (mortality, %) (spider mites; 200 ppm): 100%
mortality at 0.16 ppm ([2]; 0.16 ppm, spray): 82%
mortality at 0.63 ppm ([2]; 0.63 ppm, spray): 90%
mortality at 2.5 ppm ([2]; 2.5 ppm, spray): 100%
inhibition at 2.5 ppm [3]: 73%
inhibition at 5 ppm [3]: 100%
inhibition at 10 ppm [3]: 100%

Structure (SMILES): CCn1nc(C)c(C)c1C(OC(=O)C1CCC1)=C(C#N)c1ccc(C(C)(C)C)cc1 [Compound 50.1]
mortality at 0.63 ppm ([1]; 0.63 ppm, spray): 93%
mortality at 1.25 ppm ([1]; 1.25 ppm, spray): 100%
mortality at 2.5 ppm ([1]; 2.5 ppm, spray): 100%
mortality at 5 ppm ([1]; 5 ppm, spray): 100%
mortality at 10 ppm ([1]; 10 ppm, spray): 100%

Structure (SMILES): CCn1nc(C)cc1C(OC(=O)C(C)(C)C)=C(C#N)c1ccc(C(C)(C)C)cc1 [Compound 5.2]
Acaricidal activity against adult spider mites (mortality, %) ([1]; 0.63 ppm, spray): 56%
Acaricidal activity against adult spider mites (mortality, %) ([1]; 1.25 ppm, spray): 65%
Acaricidal activity against adult spider mites (mortality, %) ([1]; 2.5 ppm, spray): 87%
Acaricidal activity against adult spider mites (mortality, %) ([1]; 5 ppm, spray): 100%
Acaricidal activity against adult spider mites (mortality, %) ([1]; 10 ppm, spray): 100%

melting point: 70 to 72 °C
Structure (SMILES): CCn1nc(C)cc1C(O)=C(C#N)c1ccc(C(C)(C)C)cc1 [Compound 1, 3-(1-ethyl-3-methylpyrazol-5-yl)-2-(4-tertbutylphenyl)-3-hydroxy-acrylonitrile]

Structure (SMILES): CCn1nc(C)c(F)c1C(O)=C(C#N)c1ccc(C(C)(C)C)cc1 [Compound 81, 3-(1-ethyl-4-fluoro-3-methylpyrazol-5-yl)-2-(4-tertbutylphenyl)-3-hydroxy-acrylonitrile]
mortality at 600 ppm [5]: 60%
